Reference: US8822217B2, “Method for cultivating tendon cells from pluripotent cells of mesenchymal origin” (Angewandte Biotechnologie GmbH, priority 2007, dated 2014)

What was measured:
[1] = test system: pluripotent cells of mesenchymal origin; assay: Cell morphology of the cell culture after treatment; format: cell-based, human
Description: In order to isolate pluripotent cells of mesenchymal origin, small pieces of Substantia spongiosa, biopsied from the human wing of ilium were digested at 37° C. in 2 ml of DMEM (Dulbecco's modified eagles medium with 4.5 g/l of glucose) with 2.5 mg/ml collagenase for 3 h. The cell pellet obtained from the digested pieces by multiple centrifugation was inoculated in a density of 200000 cells/cm^2 and was incubated for 24 h in DMEM with 10% foetal calf serum (FCS) and specifically at 37° C., 5% C02 and 100% humidity. One preparation gives a growth area of 60 to 180 cm^2. The culture medium was changed twice a week. Before the cells are confluent after six days, they are passaged in the usual way. The first passage is cultivated further under the standard conditions described until the logarithmic growth phase is reached after three days. The culture medium is then exchanged for a medium which was adjusted to an osmolarity of 360 mosmol/l with the aid of saccharose and, in addition to DMEM mixed with 10% FCS, contains 50 μg/ml of ascorbic acid-2-phosphate. The cells are incubated for four days in this culture medium. […] In addition, the secretion of type I collagen and its cross-linking increases. […]

[2] = test system: pluripotent cells of mesenchymal origin; assay: Western Blot analysis for the collagen production; format: cell-based, human; details: for secretion of type I collagen (double band at 130 kD): vs untreated sample a; for cross-linking of the collagen (area of 400 kD): compared to sample b
Description: In order to isolate pluripotent cells of mesenchymal origin, small pieces of Substantia spongiosa, biopsied from the human wing of ilium were digested at 37° C. in 2 ml of DMEM (Dulbecco's modified eagles medium with 4.5 g/l of glucose) with 2.5 mg/ml collagenase for 3 h. The cell pellet obtained from the digested pieces by multiple centrifugation was inoculated in a density of 200000 cells/cm^2 and was incubated for 24 h in DMEM with 10% foetal calf serum (FCS) and specifically at 37° C., 5% C02 and 100% humidity. One preparation gives a growth area of 60 to 180 cm^2. The culture medium was changed twice a week. Before the cells are confluent after six days, they are passaged in the usual way. The first passage is cultivated further under the standard conditions described until the logarithmic growth phase is reached after three days. The culture medium is then exchanged for a medium which was adjusted to an osmolarity of 360 mosmol/l with the aid of saccharose and, in addition to DMEM mixed with 10% FCS, contains 50 μg/ml of ascorbic acid-2-phosphate. The cells are incubated for four days in this culture medium. […] In addition, the secretion of type I collagen and its cross-linking increases. Following stimulation of the cells to enhanced collagen secretion under hyperosmolar conditions, they are cultivated in a standard culture medium for a further 12 h in order to then be investigated.

[3] = sample c: treatment under hyperosmolar conditions
[4] = sample c: treatment under hyperosmolar conditions, listed as ascorbic-2-phosphate

SMILES: O=C1O[C@H]([C@@H](O)CO)C(O)=C1OP(=O)(O)O [ascorbic acid-2-phosphate]
- change in the cellular phenotype ([1]; 50 μg/ml, hyperosmolar conditions (360 mosmol/l with saccharose), four days): the cells become fibroblastic
- cell structure (FIG. 1 vs FIG. 2) ([1]; treatment with ascorbic-2-phosphate, polygonal structure before treatment): fibroblastic structures
- secretion of type I collagen (double band at 130 kD) ([2]; sample b: treatment without hyperosmolar conditions): significant increase
- resistance to digestion with pepsin [2, 3]: more resistant to digestion with pepsin
- cross-linking of the collagen (area of 400 kD) [2, 3]: increases
- cross-linking of the collagen (area of 400 kD) [2, 4]: enhanced cross-linking
- secretion of type I collagen (double band at 130 kD) [2, 3]: increases
- secretion of type I collagen (double band at 130 kD) [2, 4]: significant increase
